In ChEMBL document CHEMBL2010671, “Structure aided design of chimeric antibiotics” (Bioorg Med Chem Lett, 2012):
Values after ≈ are worked out from the molar mass of the structure shown.

Columns and labels:
[1] = tested on: Staphylococcus epidermidis; experiment: Antimicrobial activity against ciprofloxacin-sensitive, SXT-resistant Staphylococcus epidermidis NRS60; type: functional
Escherichia coli [2] = experiment: Antimicrobial activity against ciprofloxacin-, SXT-resistant Escherichia coli; type: functional
Klebsiella pneumoniae = experiment: Antimicrobial activity against ciprofloxacin-sensitive, SXT-resistant Klebsiella pneumoniae ATCC 700603; type: functional
Staphylococcus aureus = experiment: Antimicrobial activity against ciprofloxacin-, SXT-sensitive Staphylococcus aureus ATCC 25923; type: functional
Pseudomonas aeruginosa = experiment: Antimicrobial activity against ciprofloxacin-sensitive, SXT-resistant Pseudomonas aeruginosa ATCC 10145; type: functional
Escherichia coli [3] = experiment: Antimicrobial activity against ciprofloxacin-, SXT-sensitive Escherichia coli ATCC 25922; type: functional
[4] = Inhibition of DNA supercoiling activity of Escherichia coli DNA gyrase after 1 hr by agarose gel electrophoresis
[5] = Inhibition of DNA decatenation activity of Escherichia coli DNA topoisomerase 4 after 1 hr by agarose gel electrophoresis
Dihydrofolate reductase = target: T1, Dihydrofolate reductase (Homo sapiens, UniProt P00374); experiment: Inhibition of DHFR using dihydrofolate as substrate following 3 mins substrate preincubation measured after 3 mins by spectrophotometric analysis
T1 sequence (P00374 whole entry): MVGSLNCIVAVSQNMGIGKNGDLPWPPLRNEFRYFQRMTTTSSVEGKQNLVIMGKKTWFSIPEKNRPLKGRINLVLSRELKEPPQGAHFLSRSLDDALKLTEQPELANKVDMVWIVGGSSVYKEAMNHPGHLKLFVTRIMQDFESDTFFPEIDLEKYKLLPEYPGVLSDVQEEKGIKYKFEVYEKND

[6] = Cytotoxicity against human HepG2 cells after 48 hrs by MTT assay; type: cell-based
HEK293 = experiment: Cytotoxicity against human HEK293 cells at 100 uM after 48 hrs by MTT assay; type: cell-based; conditions: hek293, 48 h
HepG2 = experiment: Cytotoxicity against human HepG2 cells at 100 uM after 48 hrs by MTT assay; type: cell-based; conditions: hepg2, 48 h
[7] = Cytotoxicity against human HEK293 cells after 48 hrs by MTT assay; type: cell-based

## COc1cc(Cc2cnc(N)nc2N)cc(OC)c1OC [TRIMETHOPRIM]
[1]
  MIC: > 64 µg/mL
Escherichia coli [2]
  MIC: > 64 µg/mL
Klebsiella pneumoniae
  MIC: 2 µg/mL (≈ 6.89 µM)
Staphylococcus aureus
  MIC: 1 µg/mL (≈ 3.44 µM)
Pseudomonas aeruginosa
  MIC: > 64 µg/mL
Escherichia coli [3]
  MIC: 0.125 µg/mL (≈ 0.431 µM)

## [N-]=[N+]=Nc1nc2c(cc1F)c(=O)c(C(=O)O)cn2C1CC1
[1]
  MIC: 4 µg/mL (≈ 13.8 µM)
Escherichia coli [2]
  MIC: > 64 µg/mL
Klebsiella pneumoniae
  MIC: 64 µg/mL (≈ 221 µM)
Staphylococcus aureus
  MIC: 16 µg/mL (≈ 55.3 µM)
[4]; read-out: IC50
  IC50: 17 µM
Pseudomonas aeruginosa
  MIC: > 64 µg/mL
[5]; read-out: IC50
  IC50: > 250 µM
Escherichia coli [3]
  MIC: 2 µg/mL (≈ 6.92 µM)

## C#CCN1CCN(c2nc3c(cc2F)c(=O)c(C(=O)O)cn3C2CC2)CC1
[1]
  MIC: 0.5 µg/mL (≈ 1.35 µM)
Escherichia coli [2]
  MIC: > 64 µg/mL
Klebsiella pneumoniae
  MIC: 8 µg/mL (≈ 21.6 µM)
Staphylococcus aureus
  MIC: 0.25 µg/mL (≈ 0.675 µM)
[4]; read-out: IC50
  IC50: 10 µM
Pseudomonas aeruginosa
  MIC: 8 µg/mL (≈ 21.6 µM)
[5]; read-out: IC50
  IC50: 4.4 µM
Escherichia coli [3]
  MIC: 0.25 µg/mL (≈ 0.675 µM)

## C#CCNc1nc2c(cc1F)c(=O)c(C(=O)O)cn2C1CC1
[1]
  MIC: 16 µg/mL (≈ 53.1 µM)
Escherichia coli [2]
  MIC: > 64 µg/mL
Klebsiella pneumoniae
  MIC: > 64 µg/mL
Staphylococcus aureus
  MIC: 32 µg/mL (≈ 106 µM)
[4]; read-out: IC50
  IC50: 166 µM
Pseudomonas aeruginosa
  MIC: > 64 µg/mL
[5]; read-out: IC50
  IC50: > 250 µM
Escherichia coli [3]
  MIC: 16 µg/mL (≈ 53.1 µM)

## Nc1ncc(COCc2cn(-c3nc4c(cc3F)c(=O)c(C(=O)O)cn4C3CC3)nn2)c(N)n1
[1]
  MIC: 4 µg/mL (≈ 8.56 µM)
Dihydrofolate reductase
  IC50: > 250 µM
Escherichia coli [2]
  MIC: > 64 µg/mL
Klebsiella pneumoniae
  MIC: 16 µg/mL (≈ 34.2 µM)
Staphylococcus aureus
  MIC: 4 µg/mL (≈ 8.56 µM)
[4]; read-out: IC50
  IC50: 48 µM
Pseudomonas aeruginosa
  MIC: > 64 µg/mL
[5]; read-out: IC50
  IC50: 4.5 µM
Escherichia coli [3]
  MIC: 0.5 µg/mL (≈ 1.07 µM)

## O=C(O)c1cn(C2CC2)c2cc(N3CCNCC3)c(F)cc2c1=O [CIPROFLOXACIN]
[1]
  MIC: 0.06 µg/mL (≈ 0.181 µM)
Escherichia coli [2]
  MIC: > 64 µg/mL
Klebsiella pneumoniae
  MIC: 0.125 µg/mL (≈ 0.377 µM)
Staphylococcus aureus
  MIC: 0.5 µg/mL (≈ 1.51 µM)
[4]; read-out: IC50
  IC50: 0.97 µM
Pseudomonas aeruginosa
  MIC: ≤ 0.03 µg/mL
[5]; read-out: IC50
  IC50: 0.392 µM
Escherichia coli [3]
  MIC: ≤ 0.03 µg/mL

## COc1cc(Cc2cnc(Nc3nc4c(cc3F)c(=O)c(C(=O)O)cn4C3CC3)nc2N)cc2c1OCCN2
[1]
  MIC: > 64 µg/mL
Escherichia coli [2]
  MIC: > 64 µg/mL
Klebsiella pneumoniae
  MIC: > 64 µg/mL
Staphylococcus aureus
  MIC: > 64 µg/mL
Pseudomonas aeruginosa
  MIC: > 64 µg/mL
Escherichia coli [3]
  MIC: > 64 µg/mL

## COLISTIN
[1]
  MIC: 2 µg/mL
Escherichia coli [2]
  MIC: > 64 µg/mL
Klebsiella pneumoniae
  MIC: < 0.03 µg/mL
Staphylococcus aureus
  MIC: 1 µg/mL
Pseudomonas aeruginosa
  MIC: ≤ 0.03 µg/mL
Escherichia coli [3]
  MIC: 0.06 µg/mL

## Nc1ncc(CNc2nc3c(cc2F)c(=O)c(C(=O)O)cn3C2CC2)c(N)n1
Staphylococcus aureus
  MIC: > 64 µg/mL
Escherichia coli [3]
  MIC: > 64 µg/mL

## COc1cc(Cc2cnc(N)nc2Nc2nc3c(cc2F)c(=O)c(C(=O)O)cn3C2CC2)cc2c1OCCN2
[1]
  MIC: > 64 µg/mL
Escherichia coli [2]
  MIC: > 64 µg/mL
Klebsiella pneumoniae
  MIC: > 64 µg/mL
Staphylococcus aureus
  MIC: > 64 µg/mL
Pseudomonas aeruginosa
  MIC: > 64 µg/mL
Escherichia coli [3]
  MIC: > 64 µg/mL

## C#CCNc1nc2c(cc1F)c(=O)c(C(=O)OCC)cn2C1CC1
[6]
  CC50 at 48 h: 80 µM
HEK293
  Activity: Toxic
HepG2
  Activity: Toxic
[7]
  CC50 at 48 h: 80 µM

## CCOC(=O)c1cn(C2CC2)c2nc(NCc3cn(Cc4cnc(N)nc4N)nn3)c(F)cc2c1=O
[1]
  MIC: > 64 µg/mL
Escherichia coli [2]
  MIC: > 64 µg/mL
Klebsiella pneumoniae
  MIC: > 64 µg/mL
Staphylococcus aureus
  MIC: > 64 µg/mL
[4]
  IC50: Not Active
Pseudomonas aeruginosa
  MIC: > 64 µg/mL
[5]
  IC50: Not Active
Escherichia coli [3]
  MIC: > 64 µg/mL

## Nc1ncc(Cn2cc(CN3CCN(c4nc5c(cc4F)c(=O)c(C(=O)O)cn5C4CC4)CC3)nn2)c(N)n1
[1]
  MIC: 8 µg/mL (≈ 14.9 µM)
Escherichia coli [2]
  MIC: > 64 µg/mL
Klebsiella pneumoniae
  MIC: > 64 µg/mL
Staphylococcus aureus
  MIC: 64 µg/mL (≈ 120 µM)
[4]; read-out: IC50
  IC50: 160 µM
Pseudomonas aeruginosa
  MIC: 64 µg/mL (≈ 120 µM)
[5]; read-out: IC50
  IC50: 10.7 µM
Escherichia coli [3]
  MIC: 4 µg/mL (≈ 7.47 µM)

## COc1cc(Cc2cnc(N)nc2N)cc2c1OCCN2
[1]
  MIC: > 64 µg/mL
Escherichia coli [2]
  MIC: > 64 µg/mL
Klebsiella pneumoniae
  MIC: 32 µg/mL (≈ 111 µM)
Staphylococcus aureus
  MIC: 8 µg/mL (≈ 27.8 µM)
[4]; read-out: IC50
  IC50: > 250 µM
Pseudomonas aeruginosa
  MIC: > 64 µg/mL
[5]; read-out: IC50
  IC50: > 250 µM
Escherichia coli [3]
  MIC: 8 µg/mL (≈ 27.8 µM)
